Entries after “also recorded” stand apart in the source; their conditions may differ.
Legend:
[1] = test system: GB1a/2 receptors in HEK293T cells; assay: APP17-TMR binding / displacement at GB1a/2 receptors in HEK293T cells; conditions: 10 μM peptide
Protocol: Transfected HEK293T cells expressing Flag-GB1a and Flag-GB2 were seeded into 96-well microplates (Greiner Bio-One, Kremsmünster, Austria) at 50,000 cells/well. After 18 hr, peptides were mixed with conditioned medium at the following final concentrations: APP17-TMR (1 µM) with either APP17 (10 µM), sc-APP17 (10 µM), or PBS (vehicle); sc-APP17-TMR (1 µM) in PBS was used as a negative control. After removal of medium, peptide mixes were added to the wells and cells incubated in the dark for 1 hr at room temperature. After removal of the peptides, PBS with MgCl2 and CaCl2 (Sigma-Aldrich) was added to the wells. TMR fluorescence was monitored with a Spark microplate reader (Tecan Group, Männerdorf, Switzerland) using a monochromator (Excitation 544 nm, […] bandwidth; detection […], 25 nm bandwidth). TMR fluorescence was determined after subtraction of the sc-APP17-TMR fluorescence measured at HEK293T cells transfected with pCI plasmid.

[2] = test system: GB1a/2 receptor-induced Kir3 currents in HEK293T cells; assay: Kir3 K^+ currents in transfected HEK293T cells (patch-clamp); format: cell-based
[3] = test system: mEPSCs of cultured hippocampal neurons; assay: mEPSC frequency in cultured hippocampal neurons; format: cell-based, mouse; conditions: APP17 250 nM, 0.5 μM TTX, DIV13–16
Protocol: GB1a/2 receptors are abundant at axon terminals where they inhibit neurotransmitter release ([Vigot et al., 2006]). […] A GBR antagonist blocked the effect of APP17 on the mEPSC frequency, supporting a GBR-dependent mechanism. […] We additionally studied whether APP17 at 250 nM influences eEPSC amplitudes in acute hippocampal slices. Postsynaptic GBR-activated K^+ currents were blocked with a Cs^+-based intracellular solution, which allowed to specifically monitor the activity of presynaptic GBRs.
Neuronal cultures and HEK293T cells were prepared as described ([Dinamarca et al., 2019]). Coverslips with hippocampal neurons (DIV 12–15) or HEK293T cells were transferred to a chamber containing a low-K^+ bath solution (in mM): 145 NaCl, 4 KCl, 5 HEPES, 5.5 D-glucose, 1 MgCl2, and 1.8 CaCl2 (pH 7.4 adjusted with NaOH). Recordings were performed at room temperature using borosilicate pipettes of 3–5 MΩ resistance tips, filled with K-gluconate-based pipette solution (in mM): 150 K-gluconate, 1.1 EGTA, 10 HEPES, 10 Tris-phosphocreatine, 0.3 NaGTP, and 4 MgATP (pH 7.2 adjusted with KOH). […] Evoked EPSCs were recorded at –60 mV with a Cs^+-based intracellular solution. […] We recorded mEPSCs in primary neuronal cultures established from embryonic (E15–17) murine hippocampus at DIV13–16 in the presence of 0.5 μM TTX at room temperature ([Dinamarca et al., 2019]). […]

[4] = test system: mEPSCs in brain slices / cultured hippocampal neurons; conditions: cultured hippocampal neurons APP17 250 nM, ref Rice et al., 2019; cited from earlier work
Text: GBRs are composed of a GB1a or GB1b subunit with a GB2 subunit, which generates heterodimeric GB1a/2 and GB1b/2 receptors ([Pin and Bettler, 2016]). GB1a differs from GB1b by the presence of two N-terminal sushi domains (SD1/2). GB1a/2 and GB1b/2 receptors predominantly localize to pre- and postsynaptic sites, respectively ([Vigot et al., 2006]). APP and sAPP bind to SD1 of GB1a ([Schwenk et al., 2016]; [Dinamarca et al., 2019]; [Rice et al., 2019]). Synthetic APP peptides of 9 or 17 amino acid residues, termed APP9 and APP17, are sufficient for binding and inducing a stable conformation in SD ... || GB1a/2 receptors are abundant at axon terminals where they inhibit neurotransmitter release ([Vigot et al., 2006]). […] A GBR antagonist blocked the effect of APP17 on the mEPSC frequency, supporting a GBR-dependent mechanism.

CA1 pyramidal cells = conditions: anesthetized mice, two-photon Ca^2+ imaging; ref Rice et al., 2019; cited from earlier work
Text: GBRs are composed of a GB1a or GB1b subunit with a GB2 subunit, which generates heterodimeric GB1a/2 and GB1b/2 receptors ([Pin and Bettler, 2016]). GB1a differs from GB1b by the presence of two N-terminal sushi domains (SD1/2). GB1a/2 and GB1b/2 receptors predominantly localize to pre- and postsynaptic sites, respectively ([Vigot et al., 2006]). APP and sAPP bind to SD1 of GB1a ([Schwenk et al., 2016]; [Dinamarca et al., 2019]; [Rice et al., 2019]).

[5] = test system: native GBRs in mouse brain membranes; assay: [^35S]GTPγS binding in brain membrane preparations
[6] = test system: spontaneous neuronal activity in the auditory cortex; assay: two-photon Ca^2+ imaging of auditory cortex in anesthetized mice; conditions: 5 µM perfused over cortex; peptides 60 min, baclofen 15 min
GB1a/2 receptors = GB1a/2 receptors (Homo sapiens, UniProt O75899+Q9UBS5); assay: Ca^2+ mobilization assay (Calcium 6) in HEK293T cells expressing GB1a/2; format: cell-based; parameters: Flag (N); expressed in transfected cells; host or cells: HEK293T cells stably expressing chimeric Gαqi; conditions: 1 or 10 μM
GB1a/2 receptors, sequence (Q9UBS5 15-961 limits assumed): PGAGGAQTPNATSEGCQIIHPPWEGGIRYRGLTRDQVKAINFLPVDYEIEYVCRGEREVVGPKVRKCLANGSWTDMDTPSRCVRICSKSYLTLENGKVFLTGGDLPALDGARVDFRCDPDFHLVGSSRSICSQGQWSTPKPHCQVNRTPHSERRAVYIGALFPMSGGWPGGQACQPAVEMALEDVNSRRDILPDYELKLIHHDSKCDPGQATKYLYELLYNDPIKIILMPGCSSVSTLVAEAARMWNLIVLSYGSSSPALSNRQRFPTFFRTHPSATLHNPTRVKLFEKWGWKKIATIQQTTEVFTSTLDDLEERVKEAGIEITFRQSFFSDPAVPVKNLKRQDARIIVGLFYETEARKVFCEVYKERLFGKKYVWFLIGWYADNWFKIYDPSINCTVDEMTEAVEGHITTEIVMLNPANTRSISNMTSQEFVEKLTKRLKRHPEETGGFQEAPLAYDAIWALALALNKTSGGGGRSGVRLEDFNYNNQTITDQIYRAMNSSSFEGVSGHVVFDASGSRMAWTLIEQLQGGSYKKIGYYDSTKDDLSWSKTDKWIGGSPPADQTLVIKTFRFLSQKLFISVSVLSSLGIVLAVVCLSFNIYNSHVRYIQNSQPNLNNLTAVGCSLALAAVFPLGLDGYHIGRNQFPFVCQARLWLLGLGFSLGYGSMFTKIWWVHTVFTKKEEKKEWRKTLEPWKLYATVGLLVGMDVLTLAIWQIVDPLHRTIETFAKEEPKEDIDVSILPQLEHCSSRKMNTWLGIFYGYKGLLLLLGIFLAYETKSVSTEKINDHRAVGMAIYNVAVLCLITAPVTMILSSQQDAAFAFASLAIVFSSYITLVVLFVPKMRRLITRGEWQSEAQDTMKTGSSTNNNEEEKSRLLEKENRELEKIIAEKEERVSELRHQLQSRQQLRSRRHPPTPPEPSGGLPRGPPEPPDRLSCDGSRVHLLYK
GB1a/2 receptors, sequence (O75899 42-941 partner): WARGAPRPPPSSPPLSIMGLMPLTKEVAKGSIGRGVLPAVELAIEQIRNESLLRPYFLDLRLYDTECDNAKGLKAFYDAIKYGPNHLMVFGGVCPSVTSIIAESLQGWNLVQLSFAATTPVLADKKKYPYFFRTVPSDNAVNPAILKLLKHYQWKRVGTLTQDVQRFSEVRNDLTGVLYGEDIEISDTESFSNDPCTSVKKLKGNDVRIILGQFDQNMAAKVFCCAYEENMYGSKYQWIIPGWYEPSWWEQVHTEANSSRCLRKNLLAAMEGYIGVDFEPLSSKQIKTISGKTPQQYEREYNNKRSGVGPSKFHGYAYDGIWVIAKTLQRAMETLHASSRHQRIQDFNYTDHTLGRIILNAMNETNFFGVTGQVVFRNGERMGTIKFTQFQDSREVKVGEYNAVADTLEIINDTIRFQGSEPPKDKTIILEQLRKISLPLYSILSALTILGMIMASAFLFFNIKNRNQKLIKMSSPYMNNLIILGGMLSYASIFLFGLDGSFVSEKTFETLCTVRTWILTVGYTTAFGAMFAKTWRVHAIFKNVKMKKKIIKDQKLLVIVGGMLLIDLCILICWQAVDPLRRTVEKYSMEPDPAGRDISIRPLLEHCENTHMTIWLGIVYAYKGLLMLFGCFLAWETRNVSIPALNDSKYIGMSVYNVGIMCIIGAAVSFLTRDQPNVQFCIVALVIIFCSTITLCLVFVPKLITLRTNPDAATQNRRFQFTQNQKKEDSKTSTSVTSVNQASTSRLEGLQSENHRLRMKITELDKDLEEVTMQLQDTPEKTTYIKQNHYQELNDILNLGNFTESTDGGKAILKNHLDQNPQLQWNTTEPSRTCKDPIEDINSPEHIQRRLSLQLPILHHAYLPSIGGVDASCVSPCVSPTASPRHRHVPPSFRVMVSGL

Q: For Ac-DDSDVWWGGADTDYADG-NH2 [APP17], which “displacement of 1 μM APP17-TMR from GB1a/2 receptors (in words)” value [1] is on record?
A: Its value is “displaced 1 μM APP17-TMR from GB1a/2 receptors”.

Q: What about the “GABA-induced Kir3 currents in presence of peptide (in words)” value ([2]; 5 µM GABA) of the same substance?
A: The value was “nor did the peptides alter K^+ currents in the presence of 5 µM GABA”.

Q: And the “Kir3 K^+ currents evoked by compound alone (in words)” value ([2]; transfected HEK293T cells)?
A: The value was “did not trigger K^+ currents”.

Q: What about the “mEPSC frequency (in words)” value [3] of the same substance?
A: The value was “unable to detect a significant effect of APP17 on the mEPSC frequency”.

Q: What about the “mEPSC frequency (in words)” value [4] of the same substance?
A: Its value is “reduce the frequency of mEPSCs; also recorded: reduced the frequency of miniature excitatory postsynaptic currents (mEPSCs) in brain slices”.

Q: And the “neuronal activity (in words)” value (CA1 pyramidal cells)?
A: The value was “suppresses neuronal activity of CA1 pyramidal cells in anesthetized mice; also recorded: inhibited neuronal activity in the hippocampus of anesthetized mice”.

Q: What about the “effect on GABA dose-response in [^35S]GTPγS binding (in words)” value ([5]; 1 μM APP17) of the same substance?
A: Its value is “did not significantly differ from each other and exhibited similar EC50 and Emax values”.

Q: And the “EMax of GABA in presence of peptide” value ([5]; APP17 1 μM, n=8)?
A: Its value is 1.39.

Q: What about the “EC50 of GABA in presence of peptide” value ([5]; APP17 1 μM, n=8, pH 7.7, 30 μM GDP, 0.2 nM [^35S]GTPγS) of the same substance?
A: The value was 16.37 µM.

Q: What about the Basal ([5]; GABA curve fit, APP17 1 μM, n=8) of the same substance?
A: The Basal was 0.98.

Q: And the “spontaneous Ca^2+ transients (in words)” value [6]?
A: The value was “no significant effect compared to ACSF”.

Q: What about the “intracellular Ca^2+ mobilization (in words)” value (GB1a/2 receptors) of the same substance?
A: The value was “did not induce significant Ca^2+ mobilization”.

— article PMC9917443 (eLife, 2023)
